Test results published in ChEMBL document CHEMBL3885861, “Open TG-GATES”.

Species: Rattus norvegicus
Experiment: Open TG-GATES - Regimen: Single
Assay type: toxicity, organism-based, Sprague-Dawley
Parameters: regimen Single, gender Male, age 6 weeks
Conditions: in vivo, po, route gavage; for APTT / Bas / Eos / Fbg / Hb / Ht / Lym / MCH / MCHC / MCV / Mono / Neu / PT / Plat / RBC / Ret / WBC: tissue Blood; for KIDNEY_L / KIDNEY_R / KIDNEY_TOTAL: tissue Kidney; for ALP / AST / CRE / Cl / DBIL / GLC / IP / K / LDH / Na / PL / RALB / TBIL / TC / TG / TP / gamma-GTP / ALT: tissue Plasma
[1] = 0 mg/kg, 3 h, dose level Control
[2] = 0 mg/kg, 6 h, dose level Control
[3] = 0 mg/kg, 9 h, dose level Control
[4] = 0 mg/kg, 24 h, dose level Control

COc1cc2c(c(OC)c1OC)-c1ccc(OC)c(=O)cc1[C@@H](NC(C)=O)CC2 [COLCHICINE]
TERMINAL_BW [1]: 221.7 g | APTT [1]: 16.2 s | Bas [1]: 0% | Eos [1]: 0.8% | Fbg [1]: 209.4 mg/dL | Hb [1]: 13.1 g/dL | Ht [1]: 39.6% | Lym [1]: 81.8% | MCH [1]: 21.6 pg | MCHC [1]: 33.1% | MCV [1]: 65.2 fL | Mono [1]: 7% | Neu [1]: 10.4% | PT [1]: 11.8 s | Plat [1]: 118.4 x10_4/uL | RBC [1]: 608.4 x10_4/ul | Ret [1]: 10.3% | WBC [1]: 89.6 x10_2/uL | KIDNEY_L [1]: 1 g | KIDNEY_R [1]: 1.1 g | KIDNEY_TOTAL [1]: 2 g | ALP [1]: 835.6 IU/L | AST [1]: 65.6 IU/L | CRE [1]: 0.4 mg/dL | Cl [1]: 103.4 meq/L | DBIL [1]: 0.038 mg/dL | GLC [1]: 208.6 mg/dL | IP [1]: 9.3 mg/dL | K [1]: 4.5 meq/L | LDH [1]: 88.4 IU/L | Na [1]: 140.2 meq/L | PL [1]: 139.2 mg/dL | RALB [1]: 3.6 g/dL | TBIL [1]: 0.3 mg/dL | TC [1]: 78.4 mg/dL | TG [1]: 61 mg/dL | TP [1]: 5.4 g/dL | gamma-GTP [1]: 1.4 IU/L | TERMINAL_BW [2]: 218.4 g | APTT [2]: 16.3 s | Bas [2]: 0% | Eos [2]: 0.8% | Fbg [2]: 222.4 mg/dL | Hb [2]: 13.1 g/dL | Ht [2]: 39.9% | Lym [2]: 82.2% | MCH [2]: 21.6 pg | MCHC [2]: 33% | MCV [2]: 65.4 fL | Mono [2]: 6.6% | Neu [2]: 10.4% | PT [2]: 12 s | Plat [2]: 110.7 x10_4/uL | RBC [2]: 609.8 x10_4/ul | Ret [2]: 9.6% | WBC [2]: 104.3 x10_2/uL | KIDNEY_L [2]: 1 g | KIDNEY_R [2]: 1 g | KIDNEY_TOTAL [2]: 2 g | ALP [2]: 745.2 IU/L | ALT [2]: 27.6 IU/L | AST [2]: 59 IU/L | CRE [2]: 0.5 mg/dL | Cl [2]: 104 meq/L | DBIL [2]: 0.036 mg/dL | GLC [2]: 188.2 mg/dL | IP [2]: 10.1 mg/dL | K [2]: 4.6 meq/L | LDH [2]: 77.2 IU/L | Na [2]: 139 meq/L | PL [2]: 135.2 mg/dL | RALB [2]: 3.7 g/dL | TBIL [2]: 0.4 mg/dL | TC [2]: 73.2 mg/dL | TG [2]: 48.4 mg/dL | TP [2]: 5.5 g/dL | gamma-GTP [2]: 1.6 IU/L | TERMINAL_BW [3]: 218.9 g | APTT [3]: 16.3 s | Bas [3]: 0% | Eos [3]: 0.8% | Fbg [3]: 216.2 mg/dL | Hb [3]: 12.8 g/dL | Ht [3]: 38.9% | Lym [3]: 85.4% | MCH [3]: 21.6 pg | MCHC [3]: 33% | MCV [3]: 65.8 fL | Mono [3]: 5.4% | Neu [3]: 8.4% | PT [3]: 12.1 s | Plat [3]: 111 x10_4/uL | RBC [3]: 591.6 x10_4/ul | Ret [3]: 9.4% | WBC [3]: 88.7 x10_2/uL | KIDNEY_L [3]: 1 g | KIDNEY_R [3]: 1.1 g | KIDNEY_TOTAL [3]: 2.1 g | ALP [3]: 948.4 IU/L | ALT [3]: 28.8 IU/L | AST [3]: 64.4 IU/L | CRE [3]: 0.5 mg/dL | Cl [3]: 105.2 meq/L | DBIL [3]: 0.044 mg/dL | GLC [3]: 199.8 mg/dL | IP [3]: 9.9 mg/dL | K [3]: 4.9 meq/L | LDH [3]: 71.2 IU/L | Na [3]: 137.6 meq/L | PL [3]: 134.4 mg/dL | RALB [3]: 3.8 g/dL | TBIL [3]: 0.4 mg/dL | TC [3]: 77.6 mg/dL | TG [3]: 40 mg/dL | TP [3]: 5.4 g/dL | gamma-GTP [3]: 1.6 IU/L | TERMINAL_BW [4]: 232.9 g | APTT [4]: 16.4 s | Bas [4]: 0% | Eos [4]: 1.2% | Fbg [4]: 215.8 mg/dL | Hb [4]: 12.8 g/dL | Ht [4]: 38.6% | Lym [4]: 77.2% | MCH [4]: 21.7 pg | MCHC [4]: 33.1% | MCV [4]: 65.5 fL | Mono [4]: 7.2% | Neu [4]: 14.6% | PT [4]: 11.2 s | Plat [4]: 118.5 x10_4/uL | RBC [4]: 588.4 x10_4/ul | Ret [4]: 10.2% | WBC [4]: 102.4 x10_2/uL | KIDNEY_L [4]: 1.1 g | KIDNEY_R [4]: 1.1 g | KIDNEY_TOTAL [4]: 2.2 g | ALP [4]: 858 IU/L | AST [4]: 61.2 IU/L | CRE [4]: 0.5 mg/dL | Cl [4]: 102.8 meq/L | DBIL [4]: 0.022 mg/dL | GLC [4]: 203 mg/dL | IP [4]: 7.7 mg/dL | K [4]: 4.9 meq/L | LDH [4]: 86.2 IU/L | Na [4]: 137.6 meq/L | PL [4]: 156.8 mg/dL | RALB [4]: 3.8 g/dL | TBIL [4]: 0.4 mg/dL | TC [4]: 84.8 mg/dL | TG [4]: 122.8 mg/dL | TP [4]: 5.7 g/dL | gamma-GTP [4]: 1 IU/L | TERMINAL_BW (2 mg/kg, 3 h, dose level Low): 218.7 g
